In US20060069132A1, “Azolecarboxamide herbicides” (priority 2004, published 2006):

Experiments:
pigweed = experiment: Test C pre-/postemergence herbicide test; format: in vivo, Amaranthus retroflexus; conditions: for Plant response rating, Pigweed: preemergence
Procedure, shortened: (§1)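 Visual ratings on a 0–100 scale (100 = complete control) made versus untreated controls after 12 to 14 greenhouse days. Test chemicals, formulated in surfactant-containing non-phytotoxic solvent, applied preemergence to planted seeds or postemergence to 1- to 4-leaf plants (2 to 18 cm).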

large crabgrass = experiment: Test C pre-/postemergence herbicide test; format: in vivo, Digitaria sanguinalis; conditions: for Plant response rating, Crabgrass, Large: preemergence
Procedure, shortened: as §1

goosegrass = experiment: Test C pre-/postemergence herbicide test; format: in vivo, Eleusine indica; conditions: for Plant response rating, Goosegrass: preemergence
Procedure, shortened: as §1

velvetleaf = experiment: Test C pre-/postemergence herbicide test; format: in vivo, Abutilon theophrasti; conditions: for Plant response rating, Velvetleaf: preemergence
Procedure, shortened: as §1

[1] = tested on: common (oilseed) sunflower; experiment: Test C pre-/postemergence herbicide test; format: in vivo, Helianthus annuus; conditions: for Plant response rating, Sunflower: preemergence
Procedure, shortened: as §1

rice = experiment: Test B pre-/postemergence herbicide test; format: in vivo, Oryza sativa; conditions: preemergence; for Rice plant response rating (0 to 100 scale): 125 g ai/ha; for Plant response rating, Rice: 500 g ai/ha
Procedure, shortened: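 Plants compared with untreated controls 13–15 days post-treatment and given a visual 0–100 injury score. Applications: preemergence to seeds; postemergence at 1- to 4-leaf (2–18 cm); paddy species flooded, 2-leaf stage. Vehicle non-phytotoxic, surfactant included.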

[2] = 125 g ai/ha, scale 0 (no effect) to 100 (complete control), visual, 12 to 14 days
[3] = 500 g ai/ha, scale 0 to 100 (0 no effect, 100 complete control), visual, 12 to 14 days
[4] = 0 = no effect, 100 = complete control
[5] = visual rating, 0 = no effect, 100 = complete control
[6] = Preemergence, 500 g ai/ha, scale 0 to 100, 0 no effect, 100 complete control

Structure (SMILES)	Plant response rating, Pigweed (pigweed; 62 g ai/ha, scale 0 to 100)	Plant response rating, Pigweed (pigweed; [2])	Plant response rating, Pigweed (pigweed; 250 g ai/ha, scale 0-100)	Plant response rating, Pigweed (pigweed; [3])	Plant response rating, Crabgrass, Large (large crabgrass; 62 g ai/ha, scale 0 to 100)	Plant response rating, Crabgrass, Large (large crabgrass; [2])	Plant response rating, Crabgrass, Large (large crabgrass; 250 g ai/ha, scale 0-100)	Plant response rating, Crabgrass, Large (large crabgrass; [3])	Plant response rating, Goosegrass (goosegrass; 62 g ai/ha, scale 0 to 100)	Plant response rating, Goosegrass (goosegrass; [2])	Plant response rating, Goosegrass (goosegrass; 250 g ai/ha, scale 0-100)	Plant response rating, Goosegrass (goosegrass; [3])	Plant response rating, Velvetleaf (velvetleaf; 62 g ai/ha, scale 0 to 100)	Plant response rating, Velvetleaf (velvetleaf; 250 g ai/ha, scale 0-100)	Plant response rating, Velvetleaf (velvetleaf; [3])	Plant response rating, Sunflower ([1]; 62 g ai/ha, scale 0 to 100)	Plant response rating, Sunflower ([1]; 250 g ai/ha, scale 0-100)	Plant response rating, Sunflower [1, 3]	Rice plant response rating (0 to 100 scale) (rice; [4])	Plant response rating, Rice (rice; [5])	also measured
CCn1nc(C2(C)CC2)cc1C(=O)Nc1cc(C(=O)N2CC=CC2)ccc1F [Compound 301]	100	100	100	100	90	100	100	100	50	90	100	100	20	100	100	0	0	0	10	70	
CCn1nc(C(C)(C)C)cc1C(=O)Nc1ccc(OC)c(OC)c1 [Compound 298]	100	100	100	100	85	95	100	100	85	95	100	100	60	100	100	0	0	0	40	60	
CCNC(=O)c1ccc(F)c(NC(=O)c2cn(C(C)(C)C)nc2CC)c1 [Compound 193]	100	100	100		40	85	85		60	80	80		0	70		0	0		80		Pigweed plant response rating (pigweed; [6]): 100; Crabgrass, Large plant response rating (large crabgrass; [6]): 100; Goosegrass plant response rating (goosegrass; [6]): 95; Plant response rating, Velvetleaf (velvetleaf; [2]): 0; Velvetleaf plant response rating (velvetleaf; [6]): 100; Plant response rating, Sunflower [1, 2]: 0; Sunflower plant response rating [1, 6]: 50; Plant response rating, Rice (rice; visual rating 0-100, 0 no effect, 100 complete control): 100
